Measurements as given in the supplement of paper PMC7023306.
± gives the uncertainty stated by the source.

Test: TIMS collision cross section in N2 (TIMS CCS N2); higher = larger gas-phase ion size
Conditions: drift gas: N2 (99.4% N2, 0.6% O2), calibration: Stow et al. 2017 values for Agilent ESI-L Low Concentration Tune Mix, ionization: negative ESI
Description: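 Authentic plant natural product standards (10-50 ppm in 80% methanol) were analysed by UHPLC (BEH C18, 60 °C) coupled to a Bruker timsTOF Pro in negative ESI with N2 drift gas. TIMS collision cross sections were computed from mobility peak apices after calibration with Agilent Tune Mix using Stow et al. reference values. Values are the average of triplicate runs on different days, reported per annotated ion species (deprotonated ion, adducts, dimer, oxidized ion).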

SMILES	TIMS collision cross section in N2 (ion species: [M-H]-) [Å²]	further results
COc1ccc(-c2cc(=O)c3c(O)c(OC)c(O)c(OC)c3o2)cc1OC [Hymenoxin]	190.48 ± 0.09	TIMS collision cross section in N2 (ion species: [M-H+Na+HCO2H]-): 207.1 ± 0.28 Å²
COc1ccc(-c2oc3c(CC=C(C)C)c(O[C@@H]4O[C@H](CO)[C@@H](O)[C@H](O)[C@H]4O)cc(O)c3c(=O)c2O[C@@H]2O[C@@H](C)[C@H](O)[C@@H](O)[C@H]2O)cc1 [Icariin]		TIMS collision cross section in N2 (ion species: [M-H+HCO2H]-): 256.3 ± 1.1 Å²
CC(C)=CCC(=O)C1(O)C(O)=C(C(=O)CC(C)C)C(=O)C1CC=C(C)C (stereo unspecified) [Isohumulone]	187.14 ± 0.21	
C[C@@H]1O[C@@H](OC[C@H]2O[C@@H](Oc3cc(O)c4c(=O)cc(-c5ccc(O)cc5)oc4c3)[C@H](O)[C@@H](O)[C@@H]2O)[C@H](O)[C@H](O)[C@H]1O [Isorhoifolin]	231.11 ± 0.1	TIMS collision cross section in N2 (ion species: [M-H+Na+HCO2H]-): 237.1 ± 0.28 Å²
COc1ccc([C@@H]2CC(=O)c3c(O)cc(O[C@@H]4O[C@H](CO)[C@@H](O)[C@H](O)[C@H]4O)cc3O2)cc1 [Isosakuranin]	217.58 ± 0.11	TIMS collision cross section in N2 (ion species: [M-H+HCO2H]-): 213.68 ± 0.13 Å²
COc1ccc(-c2oc3cc(O)cc(O)c3c(=O)c2O)cc1 [Kaempferide]	167.04 ± 0.26	
O=c1c(O)c(-c2ccc(O)cc2)oc2cc(O)cc(O)c12 [Kaempferol]	161.08 ± 0.12	TIMS collision cross section in N2 (ion species: [2M-H]-): 234.8 ± 0.14 Å²
O=C1C[C@@H](c2ccc(O)cc2)Oc2cc(O)ccc21 [Liquiritigenin]	159.28 ± 0.075	TIMS collision cross section in N2 (ion species: [2M-H]-): 202.54 ± 0.082 Å²
CC(C)=CCC1=C(O)C(C(=O)CC(C)C)=C(O)C(CC=C(C)C)(CC=C(C)C)C1=O [Lupulone]	201.76 ± 0.7	
O=c1cc(-c2ccc(O)c(O[C@@H]3OC(CO)[C@@H](O)[C@@H](O)C3O)c2)oc2cc(O[C@@H]3OC(CO)[C@@H](O)[C@@H](O)C3O)cc(O)c12 (stereo partly specified) [Luteolin-7,3'-di-O-glucoside]	236.98 ± 0.087	
O=c1cc(-c2ccc(O)c(O)c2)oc2cc(O)cc(O)c12 [Luteolin]	160.69 ± 0.18	TIMS collision cross section in N2 (ion species: [2M-H]-): 234.87 ± 0.19 Å²
C[C@H]1[C@H](C)CC[C@]2(C(=O)O)CC[C@]3(C)C(=CC[C@@H]4[C@@]5(C)C[C@@H](O)[C@H](O)[C@@](C)(CO)[C@@H]5[C@H](O)C[C@]43C)[C@H]12 [Madecassic acid]	223.91 ± 0.25	
CCCCCCCCCCCCCC(=O)O [Myristic acid]	162.69 ± 0.1	
O=C1C[C@@H](c2ccc(O)cc2)Oc2cc(O)cc(O)c21 [Naringenin]	163.01 ± 0.16	
C[C@@H]1O[C@@H](O[C@H]2[C@H](Oc3cc(O)c4c(c3)O[C@H](c3ccc(O)cc3)CC4=O)O[C@H](CO)[C@@H](O)[C@@H]2O)[C@H](O)[C@H](O)[C@H]1O [Naringin]	215.92 ± 0.17	TIMS collision cross section in N2 (ion species: [M-H+Na+HCO2H]-): 220.79 ± 0.26 Å²
COc1ccc([C@@H]2CC(=O)c3c(O)cc(O[C@@H]4O[C@H](CO)[C@@H](O)[C@H](O)[C@H]4O[C@@H]4O[C@@H](C)[C@H](O)[C@@H](O)[C@H]4O)cc3O2)cc1O [Neohesperidin]	226.82 ± 0.1	
COc1ccc(-c2coc3cc(O[C@@H]4O[C@H](CO)[C@@H](O)[C@H](O)[C@H]4O)ccc3c2=O)cc1 [Ononin (Formononetin 7-O-glucoside)]		TIMS collision cross section in N2 (ion species: [M-H+HCO2H]-): 223.35 ± 0.14 Å²

SMILES	TIMS collision cross section in N2 (ion species: [M-H]-) [Å²]	further results
CCCCCCCCCCCCCCCC(=O)O [Palmitic acid]	170.37 ± 0.16	
CCCCCCCCCCCCCCC(=O)O [Pentadecanoic acid]	166.43 ± 0.15	
COc1ccc(-c2cc(=O)c3ccc(O)cc3o2)cc1 [Pratol]		TIMS collision cross section in N2 (ion species: [2M-H]-): 234 ± 0.056 Å²
COc1cc(O)c2c(=O)c(-c3ccc(O)cc3)coc2c1 [Prunetin]	167.78 ± 0.0071	TIMS collision cross section in N2 (ion species: [2M-H]-): 264.09 ± 0.09 Å²
C[C@H]1[C@H](C)CC[C@]2(C(=O)O)CC[C@]3(C)C(=CC[C@@H]4[C@@]5(C)C[C@@H](O)[C@@H](O)C(C)(C)[C@@H]5CC[C@]43C)[C@H]12 [Pygenic acid A]	220.9 ± 0.38	
C[C@H]1[C@H](C)CC[C@]2(C(=O)O)CC[C@]3(C)C(=CC[C@@H]4[C@@]5(C)C[C@@H](O)[C@@H](O)[C@](C)(CO)[C@@H]5CC[C@]43C)[C@H]12 [Pygenic acid B]	225.46 ± 0.32	
C[C@@H]1O[C@@H](Oc2c(-c3ccc(O)c(O)c3)oc3cc(O)cc(O)c3c2=O)[C@H](O)[C@H](O)[C@H]1O [Quercitrin]	195.84 ± 0.038	TIMS collision cross section in N2 (ion species: [M-H+Na+HCO2H]-): 205.52 ± 0.42 Å²
Oc1ccc(/C=C/c2cc(O)cc(O)c2)cc1 [Resveratrol]	157.41 ± 0.0058	
C[C@@H]1O[C@@H](O[C@H]2[C@H](Oc3cc(O)c4c(=O)cc(-c5ccc(O)cc5)oc4c3)O[C@H](CO)[C@@H](O)[C@@H]2O)[C@H](O)[C@H](O)[C@H]1O [Rhoifolin]	225.59 ± 0.085	TIMS collision cross section in N2 (ion species: [M-H+Na+HCO2H]-): 229.74 ± 2.3 Å²
C[C@@H]1O[C@@H](OC[C@H]2O[C@@H](Oc3c(-c4ccc(O)c(O)c4)oc4cc(O)cc(O)c4c3=O)[C@H](O)[C@@H](O)[C@@H]2O)[C@H](O)[C@H](O)[C@H]1O [Rutin]	231.06 ± 0.2	TIMS collision cross section in N2 (ion species: [M-3H]-): 219.55 ± 0.41 Å²
O=C(N[C@@H](CSCc1ccccc1)C(=O)O)OCc1ccccc1 [S-Benzyl-N-carbobenzyloxy-L-cysteine]	264.84 ± 0.64	
O=C(O)[C@H]1O[C@@H](Oc2cc3oc(-c4ccc(O)cc4)cc(=O)c3c(O)c2O)[C@H](O)[C@@H](O)[C@@H]1O [Scutellarein-7-glucuronide]		TIMS collision cross section in N2 (ion species: [M-3H]-): 202.76 ± 0.54 Å²
O=c1cc(-c2ccc(O)cc2)oc2cc(O)c(O)c(O)c12 [Scutellarein]	159.52 ± 0.35	TIMS collision cross section in N2 (ion species: [M-3H]-): 156.37 ± 0.57 Å²
COc1cc(C=CC(=O)O)cc(OC)c1O [Sinapic acid]	148.27 ± 0.07	
COc1cc2oc(-c3ccc(O)cc3)cc(=O)c2c(O)c1O [Sorbifolin]	166.28 ± 0.23	
CCCCCCCCCCCCCCCCCC(=O)O [Stearic acid]	178.54 ± 0.015	
O=C(/C=C/c1ccc(O)cc1)OC[C@H]1O[C@@H](Oc2c(-c3ccc(O)cc3)oc3cc(O)cc(O)c3c2=O)[C@H](O)[C@@H](O)[C@@H]1O [Tiliroside]	217.09 ± 0.061	
